Results taken from patent US20250288587A1, “Methods of Treating Fibrosis” (Athira Pharma, Inc., priority 2022, published 2025).

Experiments:
Assay type in all cases: in vivo
[1] = tested on: BALB/c mice, CCl4 mouse model of liver fibrosis; assay: CCl4-induced liver fibrosis, plasma AST; conditions: for AST in plasma, improvement compared to disease control: from study day 21, termination day 43
Method: Liver fibrosis in BALB/c mice was induced by biweekly intraperitoneal injections of carbon tetrachloride (CCl4) from study day 0 to 43. Mice were treated with vehicle, Compound 1a, or positive control, SB535334, beginning at study day 21. At termination (study day 43), plasma was tested for liver function via levels of aspartate aminotransferase (AST).
AST can be used as a marker of liver damage, because increased levels are released in the blood stream in chronic liver disease.

[2] = tested on: pulmonary LPS-stimulated rats; assay: Immune cell infiltration in BALF, LPS-induced acute pulmonary inflammation; conditions: 0.0075 mg/kg IV, 24 h and 0.5 h before LPS; BALF 4 h post LPS
CFA-stimulated rats = assay: CFA inflammatory pain model, thermal hyperalgesia (Hargreaves method); conditions: Day 5, 1 hour pre-dosing; data not shown
[3] = tested on: C57BL/6 mice, bleomycin-induced pulmonary fibrosis; assay: Bleomycin-induced pulmonary fibrosis in mice; design: key to Collagen, improvement in BLM-induced alterations versus disease control / Alpha-Smooth Muscle Actin, improvement in BLM-induced alterations versus disease control / Body Weight, improvement in BLM-induced alterations versus disease control / Right Lung Weight, improvement in BLM-induced alterations versus disease control / Hydroxyproline, improvement in BLM-induced alterations versus disease control: + = >5-25% improvement vs disease control; ++ = >26-50% improvement vs disease control; +++ = >51-100% improvement v disease control; NS means not significant; conditions: for Body Weight, improvement in BLM-induced alterations versus disease control / Right Lung Weight, improvement in BLM-induced alterations versus disease control: days 3-21; for Collagen, improvement in BLM-induced alterations versus disease control / Hydroxyproline, improvement in BLM-induced alterations versus disease control / TGF-Beta, improvement in BLM-induced alterations versus disease control: right lung homogenate
Method: Lung fibrosis in C57BL/6 mice is induced by a single […] injection of the chemotherapy drug bleomycin. Mice are treated with vehicle or test compound. At termination (study day 28), one lung is weighed, with increased weight indicating more advanced fibrosis. Lung tissue is also homogenized for hydroxyproline, collagen, and TGF-β quantification. Lung tissue is also formalin-fixed and further processed for H&E, collagen morphometry, Ashcroft's score, and both α-SMA and TUNEL expression analyses. Plasma is analyzed by multiplex bead array for MMP-2, MMP-9, IL-1β, IL-6, IL-12, and TNF-α expression.
The experimental design described in Example B1 with the following changes was used to assess the ability of Compound 1a to reduce pulmonary fibrosis. Briefly, Male C57BL/6 mice (Envigo) […] were used. The mice were 3.5-4 months old and ˜24-30 g by weight. On day −1 animals were randomized based on body weight and the animals were assigned with a permanent number by ear notching. Cages were identified by cage cards indicating the study code, group number, sex, dose, cage number, number of animals and animal number details.
On day 0, all animals (except the sham control animals) were administered bleomycin (0.03 U in 50 μl normal saline) intratracheally (i.t.) under Ketamine+Xylazine anesthesia. The sham control animals were dosed with 50 μl of normal saline intratracheally. Pirfenidone was used as a positive control; this compound is known to downregulate growth factors and procollagens to reduce fibrosis and is an approved drug for the treatment of idiopathic pulmonary fibrosis.
Vehicle, pirfenidone and test Compound 1a dosing was initiated from day 3 to day 21 as described in the following Table 2. On day 21 whole blood was collected 1-hour post-dose into EDTA and then processed to plasma. Right lungs were then collected, weighed, snap frozen and later homogenized for biochemical analysis. Hydroxyproline, collagen and TGF-Beta levels were measured in the right lung homogenates.

[4] = dose 0.2 mg/kg PO daily, day 21
[5] = dose 0.8 mg/kg PO daily, day 21

## CCC(C)CN1CC2N(C(=O)c3ccc(C(F)(F)F)cc3)CCC(=O)N2[C@@H](C)C1=O (some centres unmarked) [Compound 1a]
[1]; 0.5 mg/kg, 8 mg/kg, and 16 mg/kg
  AST levels in plasma compared to CCl4-treated mice receiving vehicle: modest but non-significant decreases
[1]; Dose 0.5 (mg/kg)
  AST in plasma, improvement compared to disease control: ++ (++ = >26-50% improvement compared to disease control)
[1]; Dose 2 (mg/kg)
  AST in plasma, improvement compared to disease control: − (− = change of <5% compared to disease control)
[1]; Dose 8 (mg/kg)
  AST in plasma, improvement compared to disease control: ++ (++ = >26-50% improvement compared to disease control)
[1]; Dose 16 (mg/kg)
  AST in plasma, improvement compared to disease control: ++ (++ = >26-50% improvement compared to disease control)
[2]
  Neutrophils in BALF, reduction in cell count vs disease control: ++ (++ = >25% reduction in cell count vs disease control)
  Total Leukocytes in BALF, reduction in cell count vs disease control: ++ (++ = >25% reduction in cell count vs disease control)
CFA-stimulated rats
  PWL (paw withdrawal latency): statistically significant increase
[3]; 0.8 mg/k
  body weight loss compared to the other treatment groups: slightly greater weight loss
[3]; 2 mg/kg
  collagen in right lung homogenate compared with pirfenidone: about the same levels of collagen
[3]; 8 mg/kg
  collagen concentration in right lung homogenates: reduced compared to the pirfenidone positive control
[3]; 8 mg/kg and 2 mg/kg, also less than pirfenidone-treated animals
  hydroxyproline concentration in right lung homogenates at termination: lower concentrations of hydroxyproline
[3]; 8 mg/kg and 2 mg/kg, versus pirfenidone-treated animals
  weight of whole right lungs at termination (day 21): less than the positive control
[3]; 8 mg/kg, day 21
  alpha-smooth muscle actin expression: significantly reduced expression of this marker
[3]; all doses, day 21
  bleomycin-induced increases in TGF-β in right lung homogenates: significantly protected against bleomycin-induced increases in TGF-β
[3]; all treatment groups, over the study period
  protection against bleomycin-induced body weight loss: did not protect against body weight loss
[3]; dose 0.2 mg/kg PO daily
  Body Weight, improvement in BLM-induced alterations versus disease control: NS
[3]; [4]
  Right Lung Weight, improvement in BLM-induced alterations versus disease control: NS
  Alpha-Smooth Muscle Actin, improvement in BLM-induced alterations versus disease control: + (+ = >5-25% improvement vs disease control)
  Collagen, improvement in BLM-induced alterations versus disease control: NS
  Hydroxyproline, improvement in BLM-induced alterations versus disease control: NS
  TGF-Beta, improvement in BLM-induced alterations versus disease control: +++ (+++ = >51-100% improvement v disease control)
[3]; dose 0.8 mg/kg PO daily
  Body Weight, improvement in BLM-induced alterations versus disease control: NS
[3]; [5]
  Right Lung Weight, improvement in BLM-induced alterations versus disease control: + (+ = >5-25% improvement vs disease control)
  Alpha-Smooth Muscle Actin, improvement in BLM-induced alterations versus disease control: NS
  Collagen, improvement in BLM-induced alterations versus disease control: + (+ = >5-25% improvement vs disease control)
  Hydroxyproline, improvement in BLM-induced alterations versus disease control: NS
  TGF-Beta, improvement in BLM-induced alterations versus disease control: +++ (+++ = >51-100% improvement v disease control)
[3]; dose 2 mg/kg PO daily
  Body Weight, improvement in BLM-induced alterations versus disease control: NS
[3]; dose 2 mg/kg PO daily, day 21
  Right Lung Weight, improvement in BLM-induced alterations versus disease control: + (+ = >5-25% improvement vs disease control)
  Alpha-Smooth Muscle Actin, improvement in BLM-induced alterations versus disease control: + (+ = >5-25% improvement vs disease control)
  Collagen, improvement in BLM-induced alterations versus disease control: ++ (++ = >26-50% improvement vs disease control)
  Hydroxyproline, improvement in BLM-induced alterations versus disease control: ++ (++ = >26-50% improvement vs disease control)
  TGF-Beta, improvement in BLM-induced alterations versus disease control: +++ (+++ = >51-100% improvement v disease control)
[3]; dose 8 mg/kg PO daily
  Body Weight, improvement in BLM-induced alterations versus disease control: NS
[3]; dose 8 mg/kg PO daily, day 21
  Right Lung Weight, improvement in BLM-induced alterations versus disease control: ++ (++ = >26-50% improvement vs disease control)
  Alpha-Smooth Muscle Actin, improvement in BLM-induced alterations versus disease control: ++ (++ = >26-50% improvement vs disease control)
  Collagen, improvement in BLM-induced alterations versus disease control: +++ (+++ = >51-100% improvement v disease control)
  Hydroxyproline, improvement in BLM-induced alterations versus disease control: + (+ = >5-25% improvement vs disease control)
  TGF-Beta, improvement in BLM-induced alterations versus disease control: +++ (+++ = >51-100% improvement v disease control)
[3]; other doses of Compound 1a, pirfenidone doses, day 21
  alpha-smooth muscle actin morphometory: insignificant decreases
